Tests used:
Experiment in all cases: microbe, parasite or virus in culture
E. coli ATCC 25922 = type: cell-based, Escherichia coli; set-up: key to FIC index antibiotic + GCol / FIC index antibiotic + GPMB: sum of FICs; ≤0.5 synergy, 0.5–4 additivity, >4 antagonism; settings: for MIC: Escherichia coli, ATCC25922, 18 h, read-out: MIC alone; for MIC / MIC alone: agent alone, one value per checkerboard plate
Procedure: (§1) The adjuvant properties of the guanidinylated polymyxins were evaluated using the checkerboard assay as previously described. The bacterial solution was prepared as described in the antimicrobial susceptibility assay. The antibiotic of interest and the adjuvant were serially diluted two-fold along the x- and y-axis on a 96-well plate, respectively, resulting in varying concentrations of both agents in each well. Equal volumes of bacterial solution were added to the designated wells. The well consisting of bacterial solution served as the positive control, while the wells containing only media served as the negative control. The plate was then incubated at 37 °C for 18 h. After incubation, an Emax Plus microplate reader (Molecular Devices, Union City, CA, USA) was used to measure the OD at a wavelength of 590 nm to confirm the turbidity. The fractional inhibitory concentration (FIC) index was then determined to establish the relationship between the antibiotic and adjuvant. The FIC index corresponds to the sum of the FICs of the antibiotic and adjuvant. The FIC of each agent is calculated by dividing its MIC when it is used in combination by its MIC when used alone. FIC indices ≤0.5, 0.5 < x ≤ 4 and >4 indicate synergy, additivity and antagonism, respectively.

P. aeruginosa PAO1 = type: cell-based, Pseudomonas aeruginosa; settings: for MIC: Pseudomonas aeruginosa, PAO1, 18 h, read-out: MIC alone
Procedure: as §1

A. baumannii ATCC 17978 = type: cell-based, Acinetobacter baumannii; settings: for MIC: Acinetobacter baumannii, ATCC17978, 18 h, read-out: MIC alone; for MIC / MIC alone: agent alone, one value per checkerboard plate
Procedure: as §1

[1] = agent alone, one value per checkerboard plate

Row | Structure (SMILES) | Absolute MIC of antibiotic at 2 μg/mL GCol (E. coli ATCC 25922) [µg/mL] | Absolute MIC of antibiotic at 2 μg/mL GPMB (E. coli ATCC 25922) [µg/mL] | MIC (E. coli ATCC 25922) [µg/mL] | Absolute MIC of antibiotic at 4 μg/mL GCol (P. aeruginosa PAO1) [µg/mL] | Absolute MIC of antibiotic at 4 μg/mL GPMB (P. aeruginosa PAO1) [µg/mL] | MIC (P. aeruginosa PAO1; [1]) [µg/mL] | Absolute MIC of antibiotic at 2 μg/mL GCol (A. baumannii ATCC 17978) [µg/mL] | Absolute MIC of antibiotic at 2 μg/mL GPMB (A. baumannii ATCC 17978) [µg/mL] | MIC (A. baumannii ATCC 17978) [µg/mL] | FIC index antibiotic + GCol (E. coli ATCC 25922) | FIC index antibiotic + GPMB (E. coli ATCC 25922) | Fold-potentiation of antibiotic (E. coli ATCC 25922; at 2 μg/mL GCol) | Fold-potentiation of antibiotic (E. coli ATCC 25922; at 2 μg/mL GPMB) | Fold-potentiation of antibiotic (P. aeruginosa PAO1; at 4 μg/mL GCol) | Fold-potentiation of antibiotic (P. aeruginosa PAO1; at 4 μg/mL GPMB) | FIC index antibiotic + GPMB (A. baumannii ATCC 17978) | Fold-potentiation of antibiotic (A. baumannii ATCC 17978; at 2 μg/mL GCol) | Fold-potentiation of antibiotic (A. baumannii ATCC 17978; at 2 μg/mL GPMB) | also measured
1 | O=C(N[C@H](CO)[C@H](O)c1ccc([N+](=O)[O-])cc1)C(Cl)Cl [Chloramphenicol] | 0.5 | 0.5 | 2 | 4 | 2 | 32 | 64 | 32 | 64 | 0.375 | 0.5 | 4 | 4 | 8 | 16 | 0.563 | 1 | 2 | 
2 | CCC[C@@H]1C[C@@H](C(=O)N[C@@H]([C@H]2O[C@H](SC)[C@H](O)[C@@H](O)[C@H]2O)[C@H](C)Cl)N(C)C1 [Clindamycin] | 4 | 8 | 64 | 8 | 8 | 1020 | 512 | 64 | 1020 | 0.125 | 0.313 | 16 | 16 | 128 | 256 | 0.375 | 2 | 16 | MIC alone (E. coli ATCC 25922): 128 µg/mL; FIC index antibiotic + GPMB (P. aeruginosa PAO1): 0.254; MIC alone (P. aeruginosa PAO1; [1]): 2048 µg/mL
3 | C[C@H]1c2cccc(O)c2C(=O)C2=C(O)[C@]3(O)C(=O)C(C(N)=O)=C(O)[C@@H](N(C)C)[C@@H]3[C@@H](O)[C@@H]21 [Doxycycline] |  |  |  | 1 | 0.5 | 8 | 0.125 | 0.063 | 0.125 |  |  |  |  |  |  |  |  |  | MIC alone (A. baumannii ATCC 17978): 0.063 µg/mL
4 | C[C@H]1COc2c(N3CCN(C)CC3)c(F)cc3c(=O)c(C(=O)O)cn1c23 [Levofloxacin] | 0.008 | 0.032 |  | 0.0625 | 0.03125 | 0.5 | 0.125 | 0.063 | 0.125 | 0.531 | 0.563 | 2 | 2 | 8 | 8 | 1 | 1 | 1 | FIC index antibiotic + GPMB (P. aeruginosa PAO1): 0.375; MIC alone (A. baumannii ATCC 17978): 0.063 µg/mL
5 | CC(=O)NC[C@H]1CN(c2ccc(N3CCOCC3)c(F)c2)C(=O)O1 [Linezolid] | 16 | 8 | 128 | 128 | 32 | 1020 | 128 | 64 | 256 | 0.25 | 0.25 | 8 | 16 | 8 | 32 | 0.375 | 2 | 4 | 

More lines, main results first:

Row | Absolute MIC of antibiotic at 2 μg/mL GCol (E. coli ATCC 25922) [µg/mL] | Absolute MIC of antibiotic at 2 μg/mL GPMB (E. coli ATCC 25922) [µg/mL] | MIC (E. coli ATCC 25922) [µg/mL] | Absolute MIC of antibiotic at 4 μg/mL GCol (P. aeruginosa PAO1) [µg/mL] | Absolute MIC of antibiotic at 4 μg/mL GPMB (P. aeruginosa PAO1) [µg/mL] | MIC (P. aeruginosa PAO1; [1]) [µg/mL] | Absolute MIC of antibiotic at 2 μg/mL GCol (A. baumannii ATCC 17978) [µg/mL] | Absolute MIC of antibiotic at 2 μg/mL GPMB (A. baumannii ATCC 17978) [µg/mL] | MIC (A. baumannii ATCC 17978) [µg/mL] | Structure (SMILES) | FIC index antibiotic + GCol (E. coli ATCC 25922) | FIC index antibiotic + GPMB (E. coli ATCC 25922) | Fold-potentiation of antibiotic (E. coli ATCC 25922; at 2 μg/mL GCol) | Fold-potentiation of antibiotic (E. coli ATCC 25922; at 2 μg/mL GPMB) | Fold-potentiation of antibiotic (P. aeruginosa PAO1; at 4 μg/mL GCol) | Fold-potentiation of antibiotic (P. aeruginosa PAO1; at 4 μg/mL GPMB) | FIC index antibiotic + GPMB (A. baumannii ATCC 17978) | Fold-potentiation of antibiotic (A. baumannii ATCC 17978; at 2 μg/mL GCol) | Fold-potentiation of antibiotic (A. baumannii ATCC 17978; at 2 μg/mL GPMB) | also measured
6 | 0.25 | 0.125 | 1 | 0.5 | 0.5 | 16 | 0.125 | 0.063 | 0.125 | CN(C)c1ccc(O)c2c1C[C@H]1C[C@H]3[C@H](N(C)C)C(O)=C(C(N)=O)C(=O)[C@@]3(O)C(O)=C1C2=O [Minocycline] | 0.281 | 0.25 | 4 | 8 | 32 | 32 | 0.5 | 1 | 4 | MIC alone (A. baumannii ATCC 17978): 0.25 µg/mL
7 | 0.008 | 0.004 | 0.016 |  |  | 1 | 0.063 | 0.063 | 0.063 | COc1c(N2C[C@@H]3CCCN[C@@H]3C2)c(F)cc2c(=O)c(C(=O)O)cn(C3CC3)c12 [Moxifloxacin] |  |  |  |  |  |  |  |  |  | 
8 | 0.125 | 0.25 | 128 | 128 | 4 | 1020 | 0.5 | 0.063 | 8 | CO[C@@H]1[C@@H](OC(N)=O)[C@@H](O)[C@H](Oc2ccc3c(O)c(NC(=O)c4ccc(O)c(CC=C(C)C)c4)c(=O)oc3c2C)OC1(C)C [Novobiocin] | 0.02 | 0.012 | 1024 | 256 | 8 | 256 | 0.07 | 16 | 256 | MIC alone (E. coli ATCC 25922): 64 µg/mL
9 | 0.125 | 0.063 | 2 | 1 | 1 | 4 | 64 | 64 | 64 | CCN1CCN(C(=O)N[C@@H](C(=O)N[C@@H]2C(=O)N3[C@@H]2SC(C)(C)[C@@H]3C(=O)O)c2ccccc2)C(=O)C1=O [Piperacillin] | 0.188 | 0.281 | 16 | 32 | 4 | 4 | 0.375 | 1 | 1 | 
10 | 0.25 | 0.125 | 64 | 256 | 32 | 1020 | 32 | 2 | 512 | C=C[C@]1(C)C[C@@H](OC(=O)CO)[C@]2(C)[C@H](C)CC[C@]3(CCC(=O)[C@H]32)[C@@H](C)[C@@H]1O [Pleuromutilin] | 0.066 | 0.035 | 256 | 512 | 4 | 32 | 0.129 | 16 | 256 | 
11 | 1 | 1 | 2 | 2 | 2 | 2 | 1 | 2 | 1 | NC[C@H]1O[C@H](O[C@H]2[C@H](O)[C@@H](O[C@H]3O[C@H](CO)[C@@H](O)[C@H](N)[C@H]3O)[C@H](N)C[C@@H]2N)[C@H](N)C[C@@H]1O [Tobramycin] | 0.516 | 1.031 | 2 | 1 | 1 | 1 | 1 | 1 | 1 | FIC index antibiotic + GPMB (P. aeruginosa PAO1): 1.016

— paper PMC9598282 (Antibiotics, 2022)
